Data reported in patent US4575497A, “3, 3", 4"-Tri-O-acylspiramycin I” (Kyowa Hakko Kogyo Co., Ltd, priority 1983, dated 1986).

What was measured:
[1] = background literature, in words; cited from earlier work
[2] = system: Staphylococcus aureus KB199; assay: MIC against Staphylococcus aureus KB199 (B); assay type: cell-based; conditions: Heart infusion agar (pH 7.0)
Excerpt: (§1) The minimum inhibitory concentration (MIC) of Compound (I) is shown in Table 4 in comparison with that of spiramycin I.
(§2) Minimum inhibitory concentration (MIC, μ g/ml)
(§3) Remark: medium used: Heart infusion agar (pH 7.0)
B: Staphylococcus aureus KB199

[3] = system: Staphylococcus aureus KB210; assay: MIC against Staphylococcus aureus KB210 (A); assay type: cell-based; conditions: Heart infusion agar (pH 7.0)
Excerpt: as §1, §2, §3
A: Staphylococcus aureus KB210

[4] = system: Bacillus cereus KB143; assay: MIC against Bacillus cereus KB143 (D); assay type: cell-based; conditions: Heart infusion agar (pH 7.0)
Excerpt: as §1, §2, §3
D: Bacillus cereus KB143

[5] = system: Klebsiella pneumoniae KB214; assay: MIC against Klebsiella pneumoniae KB214 (G); assay type: cell-based; conditions: Heart infusion agar (pH 7.0)
Excerpt: as §1, §2, §3
G: Klebsiella pneumoniae KB214

[6] = system: Micrococcus ruteus KB212; assay: MIC against Micrococcus ruteus KB212 (E); assay type: cell-based; conditions: Heart infusion agar (pH 7.0)
Excerpt: as §1, §2, §3
E: Micrococcus ruteus KB212

[7] = system: Streptococcus pneumoniae Type III; assay: Infection-healing effect, mice protection test (Test Example); assay type: in vivo; conditions: for Number of survived mice out of 10 mice: 60 mg/kg in 0.3% CMC, orally just after i.p. inoculation (1.1×10^2 cfu/mouse), 7th day; for therapeutic effect in an infection-healing test in mice: Streptococcus pneumoniae Type III, compared with acetylspiramycin and 3, 3", 4"-tri-O-acetylspiramycin I
Description: A test example of the therapeutic effect of Compound (I) in experimental test mice protection test will be given below:
Animal: ddY-strain male mice, 19±lg, one group consisting of ten mice.
Test bacterium: Streptococcus pneumoniae Type III, Inoculation rate: 1.1×10^2 cfu/mouse.
The predetermined amount of the precultured test bacteria was inoculated via i.p.
Medicament administration: 60 mg/kg of each of the medicaments was suspended in 0.3% CMC, and orally administered just after the inoculation of bacteria.

[8] = system: Bacillus subtilis KB211; assay: MIC against Bacillus subtilis KB211 (C); assay type: cell-based; conditions: Heart infusion agar (pH 7.0)
Excerpt: as §1, §2, §3
C: Bacillus subtilis KB211

[9] = system: Escherichia coli KB213; assay: MIC against Escherichia coli KB213 (F); assay type: cell-based; conditions: Heart infusion agar (pH 7.0)
Excerpt: as §1, §2, §3
F: Escherichia coli KB213

[10] = system: Streptococcus pneumoniae Type III; assay: Healing effect on test infection in mice, ED50 (Reference Example 1); assay type: in vivo; conditions: oral, 0.3% CMC, just after i.p. inoculation; Probit method, survived animals on the 7th day
Excerpt: Comparison of healing effects of acetylspiramycin and 3, 3", 4"-tri-O-acetylspiramycin I on test infection in mice
Animal : ddY-strain male mice, 19±lg, one group consisting of ten mice.
Test bacterium : Streptococcus pneumoniae Type III. Inoculation rate : 1.1×10^2 cfu/mouse.
The predetermined amount of the precultured test bacteria was inoculated via i.p..
Medicament administration : Each of the medicaments was suspended in 0.3% CMC, and orally administered just after the inoculation of bacteria.

## CCCC(=O)O[C@H]1[C@H](C)O[C@@H](O[C@H]2[C@H](N(C)C)[C@@H](O)[C@H](O[C@H]3[C@@H](CC=O)C[C@@H](C)[C@@H](O)/C=C/C=C/C[C@@H](C)OC(=O)C[C@@H](O)[C@@H]3OC)O[C@@H]2C)C[C@@]1(C)OC(=O)CC [3"-O-propionyl compound of leucomycin A5]
[1]
  in vivo activity compared with starting compounds: better in vivo activity

## CCCC(=O)OC1C(C)OC(OC2C(C)OC(OC3C(CC=O)CC(C)C(OC4CCC(N(C)C)C(C)O4)C=CC=CCC(C)OC(=O)CC(OC(=O)CC)C3OC)C(O)C2N(C)C)CC1(C)OC(=O)CC (stereo not drawn) [Compound 9, 3, 3"-di-O-propionyl-4"-O-butyrylspiramycin I]
[2]
  Minimum inhibitory concentration (MIC): > 100 μ g/ml
[3]
  Minimum inhibitory concentration (MIC): 3.12 μ g/ml
[4]
  Minimum inhibitory concentration (MIC): 3.12 μ g/ml
[5]
  Minimum inhibitory concentration (MIC): > 100 μ g/ml
[6]
  Minimum inhibitory concentration (MIC): 0.2 μ g/ml
[7]
  Number of survived mice out of 10 mice: 8 mice out of 10 mice
  therapeutic effect in an infection-healing test in mice: more excellent therapeutic effect than acetylspiramycin and 3, 3", 4"-tri-O-acetylspiramycin I
[8]
  Minimum inhibitory concentration (MIC): 3.12 μ g/ml
[9]
  Minimum inhibitory concentration (MIC): > 100 μ g/ml

## CCC(=O)OC1CC(=O)OC(C)CC=CC=CC(OC2CCC(N(C)C)C(C)O2)C(C)CC(CC=O)C(OC2OC(C)C(OC3CC(C)(OC(C)=O)C(OC(=O)CC)C(C)O3)C(N(C)C)C2O)C1OC (stereo not drawn) [Compound 8, 3"-O-acetyl-3, 4"-di-O-propionylspiramycin I]
[2]
  Minimum inhibitory concentration (MIC): > 100 μ g/ml
[3]
  Minimum inhibitory concentration (MIC): 3.12 μ g/ml
[4]
  Minimum inhibitory concentration (MIC): 3.12 μ g/ml
[5]
  Minimum inhibitory concentration (MIC): > 100 μ g/ml
[6]
  Minimum inhibitory concentration (MIC): 0.2 μ g/ml
[7]
  Number of survived mice out of 10 mice: 10 mice out of 10 mice
  therapeutic effect in an infection-healing test in mice: more excellent therapeutic effect than acetylspiramycin and 3, 3", 4"-tri-O-acetylspiramycin I
[8]
  Minimum inhibitory concentration (MIC): 3.12 μ g/ml
[9]
  Minimum inhibitory concentration (MIC): > 100 μ g/ml

## CCC(=O)OC1CC(=O)OC(C)CC=CC=CC(OC2CCC(N(C)C)C(C)O2)C(C)CC(CC=O)C(OC2OC(C)C(OC3CC(C)(OC(=O)CC)C(OC(C)=O)C(C)O3)C(N(C)C)C2O)C1OC (stereo not drawn) [Compound 3, 3,3"-di-O-propionyl-4"-O-acetylspiramycin I]
[2]
  Minimum inhibitory concentration (MIC): > 100 μ g/ml
[3]
  Minimum inhibitory concentration (MIC): 3.12 μ g/ml
[4]
  Minimum inhibitory concentration (MIC): 3.12 μ g/ml
[5]
  Minimum inhibitory concentration (MIC): > 100 μ g/ml
[6]
  Minimum inhibitory concentration (MIC): < 0.1 μ g/ml
[7]
  Number of survived mice out of 10 mice: 5 mice out of 10 mice
[8]
  Minimum inhibitory concentration (MIC): 3.12 μ g/ml
[9]
  Minimum inhibitory concentration (MIC): > 100 μ g/ml

## COC1C(OC(C)=O)CC(=O)OC(C)CC=CC=CC(OC2CCC(N(C)C)C(C)O2)C(C)CC(CC=O)C1OC1OC(C)C(OC2CC(C)(OC(C)=O)C(OC(C)=O)C(C)O2)C(N(C)C)C1O (stereo not drawn) [3, 3", 4"-tri-O-acetylspiramycin, 3, 3", 4"-tri-O-acetylspiramycin I]
[10]
  ED50: 69.5 mg/kg

## CCCC(=O)OC1C(C)OC(OC2C(C)OC(OC3C(CC=O)CC(C)C(OC4CCC(N(C)C)C(C)O4)C=CC=CCC(C)OC(=O)CC(OC(C)=O)C3OC)C(O)C2N(C)C)CC1(C)OC(C)=O (stereo not drawn) [Compound 2, 3, 3"-di-O-acetyl-4"-O-butyrylspiramycin I]
[2]
  Minimum inhibitory concentration (MIC): > 100 μ g/ml
[3]
  Minimum inhibitory concentration (MIC): 1.56 μ g/ml
[4]
  Minimum inhibitory concentration (MIC): 1.56 μ g/ml
[5]
  Minimum inhibitory concentration (MIC): 100 μ g/ml
[6]
  Minimum inhibitory concentration (MIC): < 0.1 μ g/ml
[7]
  Number of survived mice out of 10 mice: 5 mice out of 10 mice
[8]
  Minimum inhibitory concentration (MIC): 1.56 μ g/ml
[9]
  Minimum inhibitory concentration (MIC): > 100 μ g/ml

## CCC(=O)OC1(C)CC(OC2C(C)OC(OC3C(CC=O)CC(C)C(OC4CCC(N(C)C)C(C)O4)C=CC=CCC(C)OC(=O)CC(OC(C)=O)C3OC)C(O)C2N(C)C)OC(C)C1OC(C)=O (stereo not drawn) [Compound 5, 3, 4"-di-O-acetyl-3"-O-propionylspiramycin I]
[2]
  Minimum inhibitory concentration (MIC): > 100 μ g/ml
[3]
  Minimum inhibitory concentration (MIC): 3.12 μ g/ml
[4]
  Minimum inhibitory concentration (MIC): 1.56 μ g/ml
[5]
  Minimum inhibitory concentration (MIC): > 100 μ g/ml
[6]
  Minimum inhibitory concentration (MIC): < 0.1 μ g/ml
[7]
  Number of survived mice out of 10 mice: 3 mice out of 10 mice
[8]
  Minimum inhibitory concentration (MIC): 3.12 μ g/ml
[9]
  Minimum inhibitory concentration (MIC): > 100 μ g/ml

## CCCC(=O)OC1(C)CC(OC2C(C)OC(OC3C(CC=O)CC(C)C(OC4CCC(N(C)C)C(C)O4)C=CC=CCC(C)OC(=O)CC(OC(C)=O)C3OC)C(O)C2N(C)C)OC(C)C1OC(C)=O (stereo not drawn) [Compound 6, 3, 4"-di-O-acetyl-3"-O-butyrylspiramycin I]
[2]
  Minimum inhibitory concentration (MIC): > 100 μ g/ml
[3]
  Minimum inhibitory concentration (MIC): 6.25 μ g/ml
[4]
  Minimum inhibitory concentration (MIC): 1.56 μ g/ml
[5]
  Minimum inhibitory concentration (MIC): > 100 μ g/ml
[6]
  Minimum inhibitory concentration (MIC): 0.2 μ g/ml
[7]
  Number of survived mice out of 10 mice: 10 mice out of 10 mice
  therapeutic effect in an infection-healing test in mice: more excellent therapeutic effect than acetylspiramycin and 3, 3", 4"-tri-O-acetylspiramycin I
[8]
  Minimum inhibitory concentration (MIC): 3.12 μ g/ml
[9]
  Minimum inhibitory concentration (MIC): > 100 μ g/ml

## CCC(=O)OC1C(C)OC(OC2C(C)OC(OC3C(CC=O)CC(C)C(OC4CCC(N(C)C)C(C)O4)C=CC=CCC(C)OC(=O)CC(OC(C)=O)C3OC)C(O)C2N(C)C)CC1(C)OC(C)=O (stereo not drawn) [Compound 1, 3, 3"-di-O-acetyl-4"-O-propionylspiramycin I]
[2]
  Minimum inhibitory concentration (MIC): > 100 μ g/ml
[3]
  Minimum inhibitory concentration (MIC): 3.12 μ g/ml
[4]
  Minimum inhibitory concentration (MIC): 3.12 μ g/ml
[5]
  Minimum inhibitory concentration (MIC): > 100 μ g/ml
[6]
  Minimum inhibitory concentration (MIC): < 0.1 μ g/ml
[7]
  Number of survived mice out of 10 mice: 5 mice out of 10 mice
[8]
  Minimum inhibitory concentration (MIC): 1.56 μ g/ml
[9]
  Minimum inhibitory concentration (MIC): > 100 μ g/ml

## 3", 9-di-O-acetyl compound of midecamycin
[1]
  in vivo activity compared with starting compounds: better in vivo activity

## CCC(=O)OC1CC(=O)OC(C)CC=CC=CC(OC2CCC(N(C)C)C(C)O2)C(C)CC(CC=O)C(OC2OC(C)C(OC3CC(C)(OC(=O)CC)C(OC(=O)CC)C(C)O3)C(N(C)C)C2O)C1OC (stereo not drawn) [Compound 4, 3, 3", 4"-tri-O-propionylspiramycin I]
[2]
  Minimum inhibitory concentration (MIC): > 100 μ g/ml
[3]
  Minimum inhibitory concentration (MIC): 1.56 μ g/ml
[4]
  Minimum inhibitory concentration (MIC): 1.56 μ g/ml
[5]
  Minimum inhibitory concentration (MIC): > 100 μ g/ml
[6]
  Minimum inhibitory concentration (MIC): < 0.1 μ g/ml
[7]
  Number of survived mice out of 10 mice: 10 mice out of 10 mice
  therapeutic effect in an infection-healing test in mice: more excellent therapeutic effect than acetylspiramycin and 3, 3", 4"-tri-O-acetylspiramycin I
[8]
  Minimum inhibitory concentration (MIC): 1.56 μ g/ml
[9]
  Minimum inhibitory concentration (MIC): > 100 μ g/ml

## CO[C@@H]1[C@@H](O[C@@H]2O[C@H](C)[C@@H](O[C@H]3C[C@@](C)(O)[C@@H](O)[C@H](C)O3)[C@H](N(C)C)[C@H]2O)[C@@H](CC=O)C[C@@H](C)[C@@H](O[C@H]2CC[C@H](N(C)C)[C@@H](C)O2)/C=C/C=C/C[C@@H](C)OC(=O)C[C@H]1O [SPMI, Spiramycin I]
[2]
  Minimum inhibitory concentration (MIC): > 100 μ g/ml
[3]
  Minimum inhibitory concentration (MIC): 1.56 μ g/ml
[4]
  Minimum inhibitory concentration (MIC): 1.56 μ g/ml
[5]
  Minimum inhibitory concentration (MIC): 100 μ g/ml
[6]
  Minimum inhibitory concentration (MIC): < 0.1 μ g/ml
[7]
  Number of survived mice out of 10 mice: 0 mice out of 10 mice
[8]
  Minimum inhibitory concentration (MIC): 0.78 μ g/ml
[9]
  Minimum inhibitory concentration (MIC): 100 μ g/ml

## CCCC(=O)OC1(C)CC(OC2C(C)OC(OC3C(CC=O)CC(C)C(OC4CCC(N(C)C)C(C)O4)C=CC=CCC(C)OC(=O)CC(OC(=O)CC)C3OC)C(O)C2N(C)C)OC(C)C1OC(=O)CC (stereo not drawn) [Compound 7, 3, 4"-di-O-propionyl-3"-O-butyrylspiramycin I]
[2]
  Minimum inhibitory concentration (MIC): > 100 μ g/ml
[3]
  Minimum inhibitory concentration (MIC): 3.12 μ g/ml
[4]
  Minimum inhibitory concentration (MIC): 1.56 μ g/ml
[5]
  Minimum inhibitory concentration (MIC): > 100 μ g/ml
[6]
  Minimum inhibitory concentration (MIC): < 0.1 μ g/ml
[7]
  Number of survived mice out of 10 mice: 5 mice out of 10 mice
[8]
  Minimum inhibitory concentration (MIC): 1.56 μ g/ml
[9]
  Minimum inhibitory concentration (MIC): > 100 μ g/ml
